Experimental data: ChEMBL document CHEMBL4507266, “Data for DCP probe BAY-784” (2021)

Experiments:
Details in all cases: Compound concentration 1000.0 nM
[1] = biological target: Protein-tyrosine kinase 6 (Homo sapiens) (UniProt Q13882)
[2] = biological target: Mitogen-activated protein kinase kinase kinase 15 (Homo sapiens) (UniProt Q6ZN16)
[3] = test system: Tyrosine-protein kinase ABL1 (Homo sapiens), P00519 [T315I]
[4] = biological target: Tyrosine-protein kinase ABL1 (Homo sapiens) (UniProt P00519)
[5] = biological target: Ribosomal protein S6 kinase alpha-1 (Homo sapiens) (UniProt Q15418)
[6] = biological target: Ephrin type-B receptor 2 (Homo sapiens) (UniProt P29323)
[7] = biological target: Testis-specific serine/threonine-protein kinase 3 (Homo sapiens) (UniProt Q96PN8)
[8] = biological target: Megakaryocyte-associated tyrosine-protein kinase (Homo sapiens) (UniProt P42679)
[9] = biological target: Serine/threonine-protein kinase 38 (Homo sapiens) (UniProt Q15208)
[10] = biological target: LIM domain kinase 1 (Homo sapiens) (UniProt P53667)
[11] = biological target: RAF proto-oncogene serine/threonine-protein kinase (Homo sapiens) (UniProt P04049)
[12] = biological target: Phosphatidylinositol 4-phosphate 5-kinase type-1 gamma (Homo sapiens) (UniProt O60331)
[13] = biological target: Dual specificity mitogen-activated protein kinase kinase 3 (Homo sapiens) (UniProt P46734)
[14] = biological target: Myosin-IIIb (Homo sapiens) (UniProt Q8WXR4)
[15] = biological target: Homeodomain-interacting protein kinase 1 (Homo sapiens) (UniProt Q86Z02)
[16] = biological target: Protein kinase C delta type (Homo sapiens) (UniProt Q05655)
[17] = biological target: Serine/threonine-protein kinase WNK4 (Homo sapiens) (UniProt Q96J92)
[18] = biological target: Tyrosine-protein kinase FRK (Homo sapiens) (UniProt P42685)
[19] = test system: Epidermal growth factor receptor (Homo sapiens), P00533 [L858R,T790M]
[20] = biological target: Ribosomal protein S6 kinase alpha-6 (Homo sapiens) (UniProt Q9UK32)
[21] = biological target: Tyrosine-protein kinase Yes (Homo sapiens) (UniProt P07947)
[22] = biological target: Serine/threonine-protein kinase MARK2 (Homo sapiens) (UniProt Q7KZI7)
[23] = test system: Receptor-type tyrosine-protein kinase FLT3 (Homo sapiens), P36888 [UNDEFINED MUTATION]
[24] = biological target: Cyclin-dependent kinase 11B (Homo sapiens) (UniProt P21127)
[25] = biological target: Receptor-interacting serine/threonine-protein kinase 1 (Homo sapiens) (UniProt Q13546)
[26] = biological target: Dual specificity testis-specific protein kinase 1 (Homo sapiens) (UniProt Q15569)
[27] = biological target: Dual specificity protein kinase CLK4 (Homo sapiens) (UniProt Q9HAZ1)
[28] = biological target: Serine/threonine-protein kinase 10 (Homo sapiens) (UniProt O94804)
[29] = biological target: Phosphatidylinositol 4-kinase beta (Homo sapiens) (UniProt Q9UBF8)
[30] = biological target: Serine/threonine-protein kinase 17B (Homo sapiens) (UniProt O94768)
[31] = biological target: Cyclin-G-associated kinase (Homo sapiens) (UniProt O14976)
[32] = biological target: Casein kinase II subunit alpha' (Homo sapiens) (UniProt P19784)
[33] = biological target: Tyrosine-protein kinase SYK (Homo sapiens) (UniProt P43405)
[34] = biological target: Tyrosine-protein kinase ABL2 (Homo sapiens) (UniProt P42684)
[35] = biological target: Wee1-like protein kinase 2 (Homo sapiens) (UniProt P0C1S8)
[36] = biological target: Serine/threonine-protein kinase VRK2 (Homo sapiens) (UniProt Q86Y07)
[37] = biological target: cAMP-dependent protein kinase catalytic subunit PRKX (Homo sapiens) (UniProt P51817)
[38] = biological target: Homeodomain-interacting protein kinase 2 (Homo sapiens) (UniProt Q9H2X6)
[39] = test system: Mast/stem cell growth factor receptor Kit (Homo sapiens), P10721 [V559D]
[40] = biological target: Atypical kinase COQ8B, mitochondrial (Homo sapiens) (UniProt Q96D53)
[41] = biological target: Platelet-derived growth factor receptor beta (Homo sapiens) (UniProt P09619)
[42] = biological target: Tyrosine-protein kinase JAK3 (Homo sapiens) (UniProt P52333)
[43] = biological target: Serine/threonine-protein kinase 26 (Homo sapiens) (UniProt Q9P289)
[44] = biological target: MAP/microtubule affinity-regulating kinase 3 (Homo sapiens) (UniProt P27448)
[45] = biological target: Aurora kinase B (Homo sapiens) (UniProt Q96GD4)

Measured: residual activity

Ephrin type-B receptor 2 (Homo sapiens), sequence (P29323 whole entry): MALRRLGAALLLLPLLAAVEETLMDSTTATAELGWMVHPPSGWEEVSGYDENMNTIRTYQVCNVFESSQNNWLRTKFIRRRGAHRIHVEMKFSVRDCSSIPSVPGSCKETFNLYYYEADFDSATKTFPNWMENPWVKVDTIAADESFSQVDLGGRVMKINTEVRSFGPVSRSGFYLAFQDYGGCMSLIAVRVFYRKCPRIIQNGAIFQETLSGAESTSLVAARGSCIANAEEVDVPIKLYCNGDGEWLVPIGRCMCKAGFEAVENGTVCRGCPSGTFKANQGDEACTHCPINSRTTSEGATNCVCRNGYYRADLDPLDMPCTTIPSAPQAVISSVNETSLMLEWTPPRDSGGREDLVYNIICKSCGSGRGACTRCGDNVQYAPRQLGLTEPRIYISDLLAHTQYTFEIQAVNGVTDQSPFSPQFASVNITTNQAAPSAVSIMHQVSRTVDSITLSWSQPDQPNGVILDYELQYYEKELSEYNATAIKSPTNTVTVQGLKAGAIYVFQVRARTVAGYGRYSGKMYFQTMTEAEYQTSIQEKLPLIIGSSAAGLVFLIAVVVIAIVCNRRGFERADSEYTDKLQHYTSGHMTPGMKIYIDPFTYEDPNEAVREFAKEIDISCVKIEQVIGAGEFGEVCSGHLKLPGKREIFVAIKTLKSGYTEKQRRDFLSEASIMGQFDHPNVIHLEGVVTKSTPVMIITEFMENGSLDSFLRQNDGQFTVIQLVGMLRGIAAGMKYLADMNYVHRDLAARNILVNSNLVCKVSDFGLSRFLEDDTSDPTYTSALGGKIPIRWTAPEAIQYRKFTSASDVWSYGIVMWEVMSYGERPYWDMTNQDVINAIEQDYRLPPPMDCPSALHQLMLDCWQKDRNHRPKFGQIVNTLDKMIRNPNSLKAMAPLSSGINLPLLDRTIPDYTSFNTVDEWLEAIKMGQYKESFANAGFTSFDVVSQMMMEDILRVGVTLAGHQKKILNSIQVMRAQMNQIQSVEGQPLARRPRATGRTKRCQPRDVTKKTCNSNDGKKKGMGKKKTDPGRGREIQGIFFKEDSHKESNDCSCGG
Ribosomal protein S6 kinase alpha-1 (Homo sapiens), sequence (Q15418 whole entry): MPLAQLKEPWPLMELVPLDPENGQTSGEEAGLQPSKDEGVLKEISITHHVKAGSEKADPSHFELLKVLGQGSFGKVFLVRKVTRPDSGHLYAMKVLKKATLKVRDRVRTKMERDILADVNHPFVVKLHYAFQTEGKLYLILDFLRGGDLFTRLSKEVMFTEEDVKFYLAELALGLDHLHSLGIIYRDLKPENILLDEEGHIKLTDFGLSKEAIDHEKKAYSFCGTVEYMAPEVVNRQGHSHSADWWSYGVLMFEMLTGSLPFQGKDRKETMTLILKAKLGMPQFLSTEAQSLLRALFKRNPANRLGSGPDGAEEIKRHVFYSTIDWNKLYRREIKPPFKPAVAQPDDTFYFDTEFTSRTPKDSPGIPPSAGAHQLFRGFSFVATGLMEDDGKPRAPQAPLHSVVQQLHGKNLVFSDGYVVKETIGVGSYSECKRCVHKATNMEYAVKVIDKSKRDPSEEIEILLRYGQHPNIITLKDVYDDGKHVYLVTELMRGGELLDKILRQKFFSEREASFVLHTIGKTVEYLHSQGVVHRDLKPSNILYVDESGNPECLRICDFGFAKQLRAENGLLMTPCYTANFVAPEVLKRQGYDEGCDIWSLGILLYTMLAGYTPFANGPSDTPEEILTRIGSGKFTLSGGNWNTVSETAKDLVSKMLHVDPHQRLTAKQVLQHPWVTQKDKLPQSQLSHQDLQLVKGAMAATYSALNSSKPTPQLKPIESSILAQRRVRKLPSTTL
Megakaryocyte-associated tyrosine-protein kinase (Homo sapiens), sequence (P42679 whole entry): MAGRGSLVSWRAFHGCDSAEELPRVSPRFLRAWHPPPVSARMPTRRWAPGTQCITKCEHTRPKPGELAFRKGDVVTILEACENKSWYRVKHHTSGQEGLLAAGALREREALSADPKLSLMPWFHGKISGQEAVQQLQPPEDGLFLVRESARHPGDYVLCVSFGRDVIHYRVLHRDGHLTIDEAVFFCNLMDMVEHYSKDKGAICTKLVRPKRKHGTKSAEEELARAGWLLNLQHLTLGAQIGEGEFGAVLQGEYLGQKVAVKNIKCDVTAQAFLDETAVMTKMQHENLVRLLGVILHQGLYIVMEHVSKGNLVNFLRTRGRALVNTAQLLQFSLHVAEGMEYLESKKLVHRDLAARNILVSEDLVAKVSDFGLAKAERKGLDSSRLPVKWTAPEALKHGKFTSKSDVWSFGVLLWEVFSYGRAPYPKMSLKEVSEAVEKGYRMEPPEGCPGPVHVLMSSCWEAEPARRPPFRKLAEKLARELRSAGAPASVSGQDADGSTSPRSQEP
Platelet-derived growth factor receptor beta (Homo sapiens), sequence (P09619 whole entry): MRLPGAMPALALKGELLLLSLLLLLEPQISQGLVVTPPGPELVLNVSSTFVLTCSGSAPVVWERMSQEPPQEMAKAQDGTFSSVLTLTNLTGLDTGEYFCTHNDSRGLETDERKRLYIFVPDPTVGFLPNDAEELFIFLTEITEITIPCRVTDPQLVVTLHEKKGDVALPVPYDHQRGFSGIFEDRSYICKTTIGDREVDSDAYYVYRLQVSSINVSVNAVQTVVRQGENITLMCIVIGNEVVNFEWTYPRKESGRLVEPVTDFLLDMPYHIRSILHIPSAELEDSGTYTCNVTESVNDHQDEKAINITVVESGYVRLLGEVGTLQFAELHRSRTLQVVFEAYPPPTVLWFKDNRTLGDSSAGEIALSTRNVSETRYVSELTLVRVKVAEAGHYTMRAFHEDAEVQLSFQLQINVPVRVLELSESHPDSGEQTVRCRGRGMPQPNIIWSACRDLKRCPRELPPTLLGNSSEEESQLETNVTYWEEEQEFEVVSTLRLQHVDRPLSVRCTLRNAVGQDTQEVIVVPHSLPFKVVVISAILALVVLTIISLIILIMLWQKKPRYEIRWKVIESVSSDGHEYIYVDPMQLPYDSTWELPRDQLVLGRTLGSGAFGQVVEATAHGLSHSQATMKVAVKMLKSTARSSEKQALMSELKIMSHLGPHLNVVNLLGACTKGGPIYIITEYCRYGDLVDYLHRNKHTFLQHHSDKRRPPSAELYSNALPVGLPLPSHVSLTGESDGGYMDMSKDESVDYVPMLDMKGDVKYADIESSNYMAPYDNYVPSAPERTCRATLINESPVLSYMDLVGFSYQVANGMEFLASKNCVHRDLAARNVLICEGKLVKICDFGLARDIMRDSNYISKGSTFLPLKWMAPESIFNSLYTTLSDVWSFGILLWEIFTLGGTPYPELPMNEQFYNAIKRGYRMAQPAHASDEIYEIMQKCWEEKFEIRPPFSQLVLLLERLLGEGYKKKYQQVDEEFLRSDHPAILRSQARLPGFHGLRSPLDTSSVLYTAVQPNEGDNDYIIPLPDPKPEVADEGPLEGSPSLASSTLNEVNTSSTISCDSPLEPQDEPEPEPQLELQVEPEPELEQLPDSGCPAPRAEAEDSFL
Serine/threonine-protein kinase 26 (Homo sapiens), sequence (Q9P289 2-416 limits assumed): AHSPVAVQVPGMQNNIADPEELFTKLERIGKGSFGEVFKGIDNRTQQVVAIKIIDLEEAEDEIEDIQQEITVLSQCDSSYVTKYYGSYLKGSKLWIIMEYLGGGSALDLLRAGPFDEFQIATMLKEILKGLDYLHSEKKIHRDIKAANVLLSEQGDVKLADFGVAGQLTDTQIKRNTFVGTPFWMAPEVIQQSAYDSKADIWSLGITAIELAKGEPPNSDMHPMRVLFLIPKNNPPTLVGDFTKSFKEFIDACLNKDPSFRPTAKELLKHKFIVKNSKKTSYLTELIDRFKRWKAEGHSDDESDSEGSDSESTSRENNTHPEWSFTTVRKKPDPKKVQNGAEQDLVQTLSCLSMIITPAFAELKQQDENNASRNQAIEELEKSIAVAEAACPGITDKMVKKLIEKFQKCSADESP
Serine/threonine-protein kinase VRK2 (Homo sapiens), sequence (Q86Y07 whole entry): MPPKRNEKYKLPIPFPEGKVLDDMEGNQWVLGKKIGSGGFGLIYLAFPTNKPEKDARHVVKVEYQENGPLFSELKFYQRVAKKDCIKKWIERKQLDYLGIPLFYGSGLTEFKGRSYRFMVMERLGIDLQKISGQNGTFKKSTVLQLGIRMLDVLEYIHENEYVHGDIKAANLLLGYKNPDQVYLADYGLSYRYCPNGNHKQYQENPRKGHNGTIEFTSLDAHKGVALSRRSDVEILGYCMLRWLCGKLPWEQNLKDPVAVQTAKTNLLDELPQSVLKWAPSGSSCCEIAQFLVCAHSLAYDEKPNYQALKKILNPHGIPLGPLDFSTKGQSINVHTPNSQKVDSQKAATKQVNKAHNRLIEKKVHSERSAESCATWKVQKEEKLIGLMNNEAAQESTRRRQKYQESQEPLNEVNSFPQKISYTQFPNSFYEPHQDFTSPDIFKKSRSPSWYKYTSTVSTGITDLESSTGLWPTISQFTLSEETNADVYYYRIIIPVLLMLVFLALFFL
cAMP-dependent protein kinase catalytic subunit PRKX (Homo sapiens), sequence (P51817 whole entry): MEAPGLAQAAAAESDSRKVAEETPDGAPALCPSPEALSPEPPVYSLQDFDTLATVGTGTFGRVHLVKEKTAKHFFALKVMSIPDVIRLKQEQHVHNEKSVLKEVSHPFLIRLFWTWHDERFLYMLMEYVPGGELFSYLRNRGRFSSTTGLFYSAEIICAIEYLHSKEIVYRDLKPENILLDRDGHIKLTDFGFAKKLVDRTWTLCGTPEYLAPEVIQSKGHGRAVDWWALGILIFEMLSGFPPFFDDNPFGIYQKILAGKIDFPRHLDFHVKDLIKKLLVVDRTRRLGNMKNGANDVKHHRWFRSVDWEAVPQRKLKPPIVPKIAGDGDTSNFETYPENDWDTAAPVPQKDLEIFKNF
Testis-specific serine/threonine-protein kinase 3 (Homo sapiens), sequence (Q96PN8 whole entry): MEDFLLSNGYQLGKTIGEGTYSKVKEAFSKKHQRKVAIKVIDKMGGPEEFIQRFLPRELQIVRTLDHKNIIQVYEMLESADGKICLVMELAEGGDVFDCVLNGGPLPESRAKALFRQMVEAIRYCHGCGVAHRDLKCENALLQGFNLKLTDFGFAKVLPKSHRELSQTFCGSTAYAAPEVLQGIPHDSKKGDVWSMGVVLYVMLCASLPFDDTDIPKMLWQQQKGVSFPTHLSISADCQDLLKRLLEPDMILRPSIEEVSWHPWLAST

O=C(NCc1ncc(C(F)(F)F)cc1Cl)c1ccc2c(c1)C1(CCS(=O)(=O)CC1)[C@H](C1CC1)N2S(=O)(=O)c1ccc(F)cc1 [BAY-784]
inactive: [1] 100% | [2] 96% | [3] 90% | [4] 71% | [5] 100% | [6] 100% | [7] 87% | [8] 73% | [9] 92% | [10] 100% | [11] 100% | [12] 100% | [13] 71% | [14] 74% | [15] 83% | [16] 100% | [17] 91% | [18] 100% | [19] 95% | [20] 78% | [21] 90% | [22] 100% | [23] 81% | [24] 100% | [25] 100% | [26] 91% | [28] 54% | [29] 78% | [30] 85% | [31] 97% | [32] 100% | [33] 100% | [34] 100% | [35] 100% | [36] 95% | [37] 88% | [38] 81% | [39] 100% | [40] 83% | [41] 92% | [42] 79% | [43] 100% | [44] 89% | [45] 66%
active: [27] 0%

O=C(NCc1ncc(C(F)(F)F)cc1Cl)c1ccc2c(c1)C1(CCS(=O)(=O)CC1)[C@@H](C1CC1)N2S(=O)(=O)c1ccc(F)cc1 [BAY-786]
inactive: [1] 94% | [2] 78% | [3] 84% | [4] 86% | [5] 89% | [6] 100% | [7] 97% | [8] 74% | [9] 84% | [10] 91% | [11] 100% | [12] 94% | [13] 73% | [14] 100% | [15] 70% | [16] 100% | [17] 100% | [18] 99% | [19] 75% | [20] 84% | [21] 93% | [22] 63% | [23] 67% | [24] 100% | [26] 85% | [27] 100% | [28] 94% | [29] 100% | [30] 87% | [31] 96% | [32] 72% | [33] 100% | [34] 100% | [35] 100% | [36] 98% | [37] 100% | [38] 72% | [39] 85% | [40] 85% | [41] 77% | [42] 93% | [43] 82% | [44] 100% | [45] 66%
active: [25] 30%
